The values below come from ChEMBL document CHEMBL5696442, “Discovery of type II inhibitors of TGFβ-activated kinase 1 (TAK1) and mitogen-activated protein kinase kinase kinase kinase 2 (MAP4K2)” (J Med Chem, 2015).

For test [1], the target named is T1, Mitogen-activated protein kinase kinase kinase kinase 2 (Homo sapiens) (UniProt Q12851).
T1 sequence (whole entry): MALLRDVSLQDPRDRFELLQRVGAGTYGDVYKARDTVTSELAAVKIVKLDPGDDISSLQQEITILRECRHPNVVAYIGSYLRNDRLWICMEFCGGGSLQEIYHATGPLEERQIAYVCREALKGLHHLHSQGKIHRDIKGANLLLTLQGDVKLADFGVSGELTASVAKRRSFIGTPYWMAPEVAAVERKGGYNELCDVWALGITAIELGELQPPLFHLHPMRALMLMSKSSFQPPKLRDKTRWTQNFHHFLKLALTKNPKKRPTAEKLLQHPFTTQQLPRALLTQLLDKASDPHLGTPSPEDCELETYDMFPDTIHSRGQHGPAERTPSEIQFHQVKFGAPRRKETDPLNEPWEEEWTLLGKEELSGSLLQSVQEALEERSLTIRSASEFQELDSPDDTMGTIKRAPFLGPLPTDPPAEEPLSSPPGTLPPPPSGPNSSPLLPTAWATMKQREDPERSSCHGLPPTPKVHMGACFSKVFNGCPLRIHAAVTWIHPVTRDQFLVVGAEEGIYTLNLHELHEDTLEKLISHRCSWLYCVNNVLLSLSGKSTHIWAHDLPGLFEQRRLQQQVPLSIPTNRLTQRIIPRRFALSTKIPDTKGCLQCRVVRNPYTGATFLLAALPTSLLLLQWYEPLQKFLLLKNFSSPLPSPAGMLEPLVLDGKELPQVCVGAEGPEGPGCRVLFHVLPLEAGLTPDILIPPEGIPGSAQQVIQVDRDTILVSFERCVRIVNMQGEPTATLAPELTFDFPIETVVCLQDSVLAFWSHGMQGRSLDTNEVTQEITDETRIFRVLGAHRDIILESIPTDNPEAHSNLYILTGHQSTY
Kind of test: Inhibition of MAP4K2 Lys1 labeling site in human Huh-7 cell lysate at 1 uM by KiNativ Profiling analysis relative to control. The format is subcellular.

In test [2] the target is Mitogen-activated protein kinase 9 (Homo sapiens, UniProt P45984). Kind of test: Inhibition of JNK2 Lys2 labeling site in human A-375 cells at 0.5 uM by KiNativ Profiling analysis relative to control. The class given is cell-based.
Sequence of Mitogen-activated protein kinase 9 (P45984 whole entry, looked up): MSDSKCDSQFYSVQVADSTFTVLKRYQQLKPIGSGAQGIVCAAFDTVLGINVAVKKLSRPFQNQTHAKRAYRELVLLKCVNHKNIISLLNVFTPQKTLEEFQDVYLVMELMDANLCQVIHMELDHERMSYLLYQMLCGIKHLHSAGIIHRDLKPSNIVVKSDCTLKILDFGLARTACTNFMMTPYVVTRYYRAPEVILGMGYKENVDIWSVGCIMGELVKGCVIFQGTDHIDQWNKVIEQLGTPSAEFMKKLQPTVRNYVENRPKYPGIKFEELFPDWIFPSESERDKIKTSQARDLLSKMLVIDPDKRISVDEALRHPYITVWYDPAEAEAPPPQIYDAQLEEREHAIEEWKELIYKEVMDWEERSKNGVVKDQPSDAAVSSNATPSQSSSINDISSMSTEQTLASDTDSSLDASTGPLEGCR
In test [3] the target is Tyrosine-protein kinase Fer (Homo sapiens, UniProt P16591). Kind of test: Inhibition of FER Lys1 labeling site harbouring DKTSVAVKTCKEDLPQELK in human A-375 cells at 5 uM by KiNativ Profiling analysis relative to control. The format is cell-based.
Sequence of Tyrosine-protein kinase Fer (P16591 whole entry, looked up): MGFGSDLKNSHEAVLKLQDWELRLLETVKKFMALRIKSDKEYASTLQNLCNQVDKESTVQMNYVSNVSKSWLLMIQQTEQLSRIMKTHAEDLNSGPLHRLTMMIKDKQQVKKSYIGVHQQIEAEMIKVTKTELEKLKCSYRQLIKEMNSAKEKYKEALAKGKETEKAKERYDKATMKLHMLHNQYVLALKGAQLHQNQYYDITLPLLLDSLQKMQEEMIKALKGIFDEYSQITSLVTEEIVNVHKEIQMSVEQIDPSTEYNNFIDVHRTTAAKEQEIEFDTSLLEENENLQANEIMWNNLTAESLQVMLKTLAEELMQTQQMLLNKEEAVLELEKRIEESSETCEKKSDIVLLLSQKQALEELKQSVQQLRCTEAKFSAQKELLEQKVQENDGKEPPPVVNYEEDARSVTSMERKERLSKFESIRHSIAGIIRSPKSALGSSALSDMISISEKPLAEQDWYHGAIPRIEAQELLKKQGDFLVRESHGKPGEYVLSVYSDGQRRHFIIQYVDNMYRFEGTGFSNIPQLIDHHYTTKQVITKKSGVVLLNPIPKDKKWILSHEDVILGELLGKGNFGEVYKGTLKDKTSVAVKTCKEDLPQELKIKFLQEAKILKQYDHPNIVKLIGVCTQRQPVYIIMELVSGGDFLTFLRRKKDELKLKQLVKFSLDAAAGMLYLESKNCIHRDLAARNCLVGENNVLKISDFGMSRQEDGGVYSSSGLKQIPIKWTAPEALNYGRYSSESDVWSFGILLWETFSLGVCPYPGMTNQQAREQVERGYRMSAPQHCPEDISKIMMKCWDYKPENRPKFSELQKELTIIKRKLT
The target of test [4] is Mitogen-activated protein kinase kinase kinase 11 (Homo sapiens) (UniProt Q16584). Kind of test: Inhibition of MLK3 Lys2 labeling site in human A-375 cells at 5 uM by KiNativ Profiling analysis relative to control. The format is cell-based.
Sequence of Mitogen-activated protein kinase kinase kinase 11 (Homo sapiens) (Q16584 whole entry, looked up): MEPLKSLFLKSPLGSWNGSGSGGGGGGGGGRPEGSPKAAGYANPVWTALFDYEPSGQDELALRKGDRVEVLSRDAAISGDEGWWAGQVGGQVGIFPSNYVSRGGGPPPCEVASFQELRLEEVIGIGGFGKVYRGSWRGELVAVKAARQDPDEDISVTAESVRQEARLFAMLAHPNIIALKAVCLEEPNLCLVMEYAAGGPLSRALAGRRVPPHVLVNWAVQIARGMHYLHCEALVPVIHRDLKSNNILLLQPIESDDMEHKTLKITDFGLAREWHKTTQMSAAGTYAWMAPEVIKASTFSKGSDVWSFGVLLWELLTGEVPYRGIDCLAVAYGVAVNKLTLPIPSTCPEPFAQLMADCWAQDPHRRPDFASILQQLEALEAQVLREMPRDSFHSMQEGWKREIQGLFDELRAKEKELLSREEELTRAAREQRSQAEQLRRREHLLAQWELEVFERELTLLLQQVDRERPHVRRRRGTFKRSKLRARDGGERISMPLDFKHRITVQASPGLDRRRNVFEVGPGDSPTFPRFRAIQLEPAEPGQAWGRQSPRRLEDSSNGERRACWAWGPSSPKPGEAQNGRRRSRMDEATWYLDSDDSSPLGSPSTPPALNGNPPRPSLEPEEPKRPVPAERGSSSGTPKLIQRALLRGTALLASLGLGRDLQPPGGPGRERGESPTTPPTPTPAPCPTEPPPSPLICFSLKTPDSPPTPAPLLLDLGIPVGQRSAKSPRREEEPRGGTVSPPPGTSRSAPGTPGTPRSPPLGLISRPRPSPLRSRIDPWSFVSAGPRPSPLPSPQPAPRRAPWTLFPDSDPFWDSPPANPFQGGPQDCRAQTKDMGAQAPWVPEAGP
Test [5] deals with T2, Ephrin type-B receptor 4 (Homo sapiens) (UniProt P54760).
T2 sequence (whole entry): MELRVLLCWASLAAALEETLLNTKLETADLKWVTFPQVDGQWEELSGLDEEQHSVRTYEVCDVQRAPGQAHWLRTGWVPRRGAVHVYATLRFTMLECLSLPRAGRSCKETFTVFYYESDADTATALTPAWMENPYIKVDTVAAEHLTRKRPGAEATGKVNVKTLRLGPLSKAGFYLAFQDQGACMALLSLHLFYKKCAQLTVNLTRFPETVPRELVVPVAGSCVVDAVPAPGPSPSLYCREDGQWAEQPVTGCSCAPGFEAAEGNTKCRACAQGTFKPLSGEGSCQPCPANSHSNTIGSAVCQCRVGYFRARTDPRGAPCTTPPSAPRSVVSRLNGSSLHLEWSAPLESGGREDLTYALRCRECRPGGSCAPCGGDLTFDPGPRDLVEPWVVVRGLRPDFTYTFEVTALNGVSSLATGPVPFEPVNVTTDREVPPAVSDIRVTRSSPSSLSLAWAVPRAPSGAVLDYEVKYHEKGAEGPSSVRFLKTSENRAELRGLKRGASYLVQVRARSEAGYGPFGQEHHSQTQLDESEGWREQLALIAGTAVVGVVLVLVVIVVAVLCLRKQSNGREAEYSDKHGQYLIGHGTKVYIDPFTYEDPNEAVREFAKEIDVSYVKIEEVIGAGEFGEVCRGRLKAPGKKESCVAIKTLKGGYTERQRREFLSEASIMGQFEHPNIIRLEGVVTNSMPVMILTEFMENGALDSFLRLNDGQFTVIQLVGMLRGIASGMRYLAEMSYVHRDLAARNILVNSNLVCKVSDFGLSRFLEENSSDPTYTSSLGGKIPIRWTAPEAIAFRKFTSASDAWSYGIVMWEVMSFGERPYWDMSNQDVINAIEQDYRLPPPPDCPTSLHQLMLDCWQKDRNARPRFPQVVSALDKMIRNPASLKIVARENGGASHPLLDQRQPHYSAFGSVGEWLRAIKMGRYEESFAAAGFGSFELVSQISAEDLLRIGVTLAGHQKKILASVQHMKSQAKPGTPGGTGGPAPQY
Kind of test: Inhibition of EphB4 ACT labeling site in human A-375 cells at 0.05 uM by KiNativ Profiling analysis relative to control. The class given is cell-based.

The target of test [6] is T3, Mitogen-activated protein kinase kinase kinase 2 (Homo sapiens) (UniProt Q9Y2U5).
T3 sequence (whole entry): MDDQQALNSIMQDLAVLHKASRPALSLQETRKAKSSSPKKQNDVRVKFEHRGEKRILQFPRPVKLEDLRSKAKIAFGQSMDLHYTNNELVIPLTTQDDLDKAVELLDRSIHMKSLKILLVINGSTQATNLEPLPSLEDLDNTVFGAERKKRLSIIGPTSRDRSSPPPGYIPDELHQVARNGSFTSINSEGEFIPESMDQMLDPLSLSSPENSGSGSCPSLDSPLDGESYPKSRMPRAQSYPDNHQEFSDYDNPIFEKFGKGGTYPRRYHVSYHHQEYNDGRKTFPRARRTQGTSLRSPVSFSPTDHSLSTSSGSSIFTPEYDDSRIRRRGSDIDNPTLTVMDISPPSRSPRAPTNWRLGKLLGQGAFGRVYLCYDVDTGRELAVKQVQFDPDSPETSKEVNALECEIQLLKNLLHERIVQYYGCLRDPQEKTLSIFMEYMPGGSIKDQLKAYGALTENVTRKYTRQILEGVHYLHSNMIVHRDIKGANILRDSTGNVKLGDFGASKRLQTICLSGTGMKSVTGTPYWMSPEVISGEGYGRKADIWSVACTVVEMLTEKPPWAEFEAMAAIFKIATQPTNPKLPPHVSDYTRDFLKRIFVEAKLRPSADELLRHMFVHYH
Kind of test: Inhibition of MAP3K2 Lys1 labeling site harbouring ELAVKQVQFDPDSPETSKEVNALECEIQLLK in human A-375 cells at 0.05 uM by KiNativ Profiling analysis relative to control. The class given is cell-based.

The target of test [7] is Protein kinase C beta type (Homo sapiens) (UniProt P05771). As to the kind of experiment: Inhibition of PKCb Lys2 labeling site in human A-375 cells at 0.05 uM by KiNativ Profiling analysis relative to control. The format is cell-based.
Sequence of Protein kinase C beta type (Homo sapiens) (P05771 2-671 limits assumed): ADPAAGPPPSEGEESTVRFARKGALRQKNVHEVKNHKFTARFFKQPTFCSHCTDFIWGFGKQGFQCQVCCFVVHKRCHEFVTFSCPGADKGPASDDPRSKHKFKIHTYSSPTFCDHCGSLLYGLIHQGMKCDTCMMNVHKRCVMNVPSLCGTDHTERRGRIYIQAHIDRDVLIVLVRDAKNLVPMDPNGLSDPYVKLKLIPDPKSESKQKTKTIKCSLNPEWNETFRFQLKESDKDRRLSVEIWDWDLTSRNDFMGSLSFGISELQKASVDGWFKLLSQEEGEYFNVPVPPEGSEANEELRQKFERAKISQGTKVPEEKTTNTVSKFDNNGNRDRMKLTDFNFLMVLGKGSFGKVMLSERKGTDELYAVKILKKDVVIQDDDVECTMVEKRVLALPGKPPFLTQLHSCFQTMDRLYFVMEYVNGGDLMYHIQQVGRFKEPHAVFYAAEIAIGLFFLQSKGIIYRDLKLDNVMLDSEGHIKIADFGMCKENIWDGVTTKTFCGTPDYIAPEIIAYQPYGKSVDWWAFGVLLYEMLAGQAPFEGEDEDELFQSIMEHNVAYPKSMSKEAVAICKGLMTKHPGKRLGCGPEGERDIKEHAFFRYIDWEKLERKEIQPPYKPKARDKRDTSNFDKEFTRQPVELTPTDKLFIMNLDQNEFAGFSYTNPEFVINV
A short description of test [8]: Inhibition of p70S6K Lys2 labeling site in human A-375 cells at 5 uM by KiNativ Profiling analysis relative to control. The following applies: condition cancer.

The inhibition is the drop in the measured response relative to a control, in per cent. For the compound `CNc1cc(Oc2cc(C(=O)Nc3cc(N4CCN(C)CC4)cc(C(F)(F)F)c3)ccc2C)ncn1`, the inhibition in test [1] was found to be 85.3%.

As to `CCN1CCN(Cc2ccc(NC(=O)c3ccc(C)c(/C=C/c4cnc5[nH]ccc5c4OC)c3)cc2C(F)(F)F)CC1`, the inhibition amounted to 40.6% in test [2]; 80.3% in test [3]; 81.1% in test [4]; 33.4% in test [5]; 5.2% in test [6]; 58% in test [7]. In addition, in test [8], the inhibition at 5 µM is -15.2%.

As for `CNc1cc(Oc2cc(C(=O)Nc3cc(-n4cnc(C)c4)cc(C(F)(F)F)c3)ccc2C)ncn1`, the inhibition in test [1] worked out at 79.7%.

With `CCN1CCN(Cc2ccc(NC(=O)c3ccc(C)c(Oc4ccnc5[nH]ccc45)c3)cc2C(F)(F)F)CC1`, the inhibition worked out at 73.7% in test [2]; 98.1% in test [3]; 9.5% in test [4]; 3.4% in test [5]; 11.8% in test [6]; 45.3% in test [7]. The inhibition at 5 µM in test [8] was -45.5%.
